Test results: PubChem BioAssay (NCI)
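96-well plates; 48 h exposure; 5 concentrations. Endpoints by linear interpolation between flanking doses. Not reached: highest tested concentration assigned. At the GI50, growth is halved. TGI: total growth inhibition.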

Key:
Experiment in all cases: NCI-60 cell line screen, 48 h
LOX IMVI melanoma = tested on: LOX IMVI melanoma
UO-31 renal = tested on: UO-31 renal
SF-268 CNS = tested on: SF-268 CNS
SF-295 CNS = tested on: SF-295 CNS
COLO 205 colon = tested on: COLO 205 colon
SK-MEL-2 melanoma = tested on: SK-MEL-2 melanoma
RXF 393 renal = tested on: RXF 393 renal
ACHN renal = tested on: ACHN renal
UACC-257 melanoma = tested on: UACC-257 melanoma
OVCAR-5 ovarian = tested on: OVCAR-5 ovarian

Structure (SMILES)	TGI (LOX IMVI melanoma)	TGI (UO-31 renal)	TGI (SF-268 CNS)	TGI (SF-295 CNS)	GI50 (COLO 205 colon)	TGI (SK-MEL-2 melanoma)	TGI (RXF 393 renal)	TGI (ACHN renal)	TGI (UACC-257 melanoma)	TGI (OVCAR-5 ovarian)	TGI (COLO 205 colon)	GI50 (LOX IMVI melanoma)	GI50 (UO-31 renal)	GI50 (SF-268 CNS)	GI50 (SF-295 CNS)	GI50 (SK-MEL-2 melanoma)	GI50 (RXF 393 renal)	GI50 (ACHN renal)	GI50 (UACC-257 melanoma)	GI50 (OVCAR-5 ovarian)
CC1CC[P+](c2ccccc2)(c2ccccc2)c2c1ccc1ccccc21 (centres undefined)	7.61 µM	> 68.3 µM	> 100 µM	20.3 µM	2.02 µM	7.13 µM	43.5 µM	> 81.5 µM	13.9 µM	> 100 µM	–	–	–	–	–	–	–	–	–	–
c1ccc(C2OC3(CCC[C@H]4C[C@H]43)O[C@H]2c2ccccc2)cc1 (some centres undefined)	56.8 µM	> 100 µM	> 100 µM	> 100 µM	–	39.6 µM	79 µM	> 100 µM	77.7 µM	> 100 µM	91.7 µM	–	–	–	–	–	–	–	–	–
COC(=O)c1ccc(CN2C(=O)C(Cl)=C(Nc3cccc(Cl)c3C)C2=O)cc1	> 100 µM	> 100 µM	> 100 µM	> 100 µM	19.7 µM	21.9 µM	> 100 µM	90.4 µM	> 100 µM	> 100 µM	> 100 µM	32.3 µM	15.1 µM	45.3 µM	35.4 µM	3.48 µM	33.7 µM	33.7 µM	45.6 µM	58.1 µM
COc1ccc(Cc2coc3ccccc3c2=O)cc1OC	> 100 µM	> 100 µM	> 100 µM	> 100 µM	–	> 100 µM	> 100 µM	> 100 µM	> 100 µM	> 100 µM	> 100 µM	–	–	–	–	–	–	–	–	–
Cc1cccc2nc3ccccc3c(Nc3ccc(NS(C)(=O)=O)cc3)c12	15.1 µM	12.4 µM	30.2 µM	47.5 µM	7.61 µM	31.8 µM	23.6 µM	11 µM	22.9 µM	38.9 µM	24 µM	3.38 µM	2.61 µM	10.2 µM	5.2 µM	16.9 µM	10.8 µM	2.69 µM	10.4 µM	16.4 µM
CC1/C(=N\O)CC(c2ccccc2)N(C)C1c1ccccc1 (centres undefined)	> 100 µM	> 100 µM	> 100 µM	> 100 µM	–	> 100 µM	> 100 µM	> 100 µM	> 100 µM	> 100 µM	> 100 µM	–	–	–	–	–	–	–	–	–
CC1=C2[C@@H](CC1)[C@]1(C)O[C@@](C(C)C)(C[C@H]1OC(=O)CO)[C@H]2OC(=O)C1CC1c1ccccc1 (some centres undefined)	31.1 µM	25.1 µM	27.9 µM	24.7 µM	16.1 µM	32.3 µM	17.4 µM	20.9 µM	32.4 µM	40.4 µM	33 µM	14.4 µM	9.49 µM	13 µM	12 µM	15.5 µM	0.405 µM	3.05 µM	17.3 µM	20.3 µM
COc1cc(/C=N/Nc2ncnc3c2cnn3-c2ccccc2)ccc1O	> 25 µM	> 25 µM	> 25 µM	> 25 µM	> 14.6 µM	20.6 µM	> 25 µM	> 25 µM	> 25 µM	> 25 µM	> 25 µM	10.3 µM	–	> 18.4 µM	> 15.5 µM	5.85 µM	4.33 µM	7.93 µM	> 25 µM	> 25 µM
Nc1ccc(C2=CC(c3ccc(Cl)cc3)N3C=CSC3=N2)cc1 (centres undefined)	5.65 µM	11 µM	30.7 µM	40.4 µM	8.59 µM	59.3 µM	4.18 µM	4.46 µM	17 µM	34.7 µM	20.6 µM	2.34 µM	2.33 µM	11.3 µM	13.1 µM	26.3 µM	2.03 µM	2.02 µM	3.8 µM	12.2 µM
COc1ccc(-c2nc(-c3ccc(C)cc3)cn3ccnc23)cc1	13.8 µM	> 50 µM	> 50 µM	> 50 µM	2.87 µM	> 50 µM	18.5 µM	> 50 µM	25.8 µM	> 50 µM	> 50 µM	3.43 µM	12 µM	3.06 µM	3.69 µM	20.8 µM	2.41 µM	7.58 µM	9.54 µM	28.9 µM
CC1=C(C(=O)Nc2ccccc2)C(c2cccc3ccccc23)C(C(=O)Nc2ccccc2)=C(C)N1	30.4 µM	52.8 µM	43.1 µM	46.6 µM	–	34.7 µM	29.2 µM	83.8 µM	39.2 µM	44.6 µM	26.6 µM	–	–	–	–	–	–	–	–	–
COc1ccc(C/C(=C(\C)c2ccc(OCCN3CCCC3)cc2)c2ccc(OCCN3CCCC3)cc2)cc1	3.18 µM	2.94 µM	4.19 µM	3.47 µM	1.72 µM	3.53 µM	2.88 µM	3.12 µM	3.31 µM	3.72 µM	3.38 µM	1.73 µM	1.56 µM	1.97 µM	1.76 µM	1.87 µM	1.48 µM	1.74 µM	1.76 µM	1.8 µM
NC(=O)c1cc([N+](=O)[O-])c(Cl)c([N+](=O)[O-])c1Cl	1.16 µM	3.48 µM	3.07 µM	12.1 µM	0.369 µM	3.16 µM	2.39 µM	3.71 µM	2.38 µM	4.59 µM	1.47 µM	0.33 µM	1.58 µM	1.64 µM	3.29 µM	1.71 µM	1.15 µM	1.63 µM	1.13 µM	2.3 µM
COc1cccc(CC(C)=C(c2ccc(OCCN3CCCCC3)cc2)c2ccc(OCCN3CCCCC3)cc2)c1	3.52 µM	3.66 µM	4.32 µM	4.82 µM	1.41 µM	5.71 µM	2.88 µM	4.07 µM	4.33 µM	3.99 µM	3.73 µM	1.64 µM	1.84 µM	2.08 µM	2.42 µM	2.73 µM	0.916 µM	2.16 µM	2.14 µM	2.02 µM
O=S(=O)(NNc1ccccc1)c1ccccc1	13.6 µM	25.7 µM	> 100 µM	25.4 µM	–	44.3 µM	38.5 µM	15.8 µM	> 100 µM	> 100 µM	22.3 µM	–	–	–	–	–	–	–	–	–
CC(C)(C)c1ccc(Oc2ccc(N)cn2)cc1	> 100 µM	> 100 µM	> 100 µM	> 100 µM	50.7 µM	> 100 µM	> 100 µM	> 100 µM	> 100 µM	> 100 µM	> 100 µM	60.1 µM	1.75 µM	5.77 µM	45.8 µM	> 100 µM	49.6 µM	> 100 µM	37.8 µM	> 100 µM
CC1=C(SCCC(=O)OC(C[Se]C2=C(C)C(=O)c3ccccc3C2=O)C(=O)NCCCCCC(=O)OCc2ccccc2)C(=O)c2ccccc2C1=O (centres undefined)	11.5 µM	15.3 µM	19.9 µM	8.7 µM	7.95 µM	18.9 µM	28.3 µM	27.6 µM	10.1 µM	18.7 µM	22.6 µM	2.75 µM	2.51 µM	7.33 µM	2.49 µM	5.5 µM	14.9 µM	12.1 µM	3.46 µM	5.05 µM
